Tests used:
Assay type in all cases: functional
[1] = tested on: Hepatocyte; test: Inhibition of D-galactosamine/TNFalpha-induced cell death in ddY mouse hepatocytes at 10 uM after 20 hrs by MTT assay
[2] = tested on: Hepatocyte; test: Inhibition of D-galactosamine/TNFalpha-induced cell death in ddY mouse hepatocytes at 1 uM after 20 hrs by MTT assay
[3] = tested on: Hepatocyte; test: Inhibition of D-galactosamine/TNFalpha-induced cell death in ddY mouse hepatocytes at 30 uM after 20 hrs by MTT assay
[4] = tested on: Hepatocyte; test: Inhibition of D-galactosamine/TNFalpha-induced cell death in ddY mouse hepatocytes at 3 uM after 20 hrs by MTT assay
[5] = tested on: Mus musculus; test: Inhibition of D-galactosamine/LPS-induced TNFalpha level in ddY mouse serum at 10 mg/kg, po by ELISA
[6] = tested on: Mus musculus; test: Inhibition of D-galactosamine/LPS-induced liver injury in ddY mouse assessed as serum GOT level at 10 mg/kg, po
[7] = tested on: Mus musculus; test: Inhibition of D-galactosamine/LPS-induced liver injury in ddY mouse assessed as serum GPT level at 10 mg/kg, po
[8] = tested on: L929; test: Inhibition of TNF-alpha-induced cell death in […] assessed as cell viability at 30 uM after 20 hrs by MTT assay; details: L929, 20 h, read-out: Activity
[9] = tested on: Hepatocyte; test: Inhibition of D-galactosamine-induced cell death in ddY mouse hepatocytes assessed as cell viability at 30 uM after 44 hrs by MTT assay; details: read-out: Activity
[10] = tested on: Hepatocyte; test: Inhibition of D-galactosamine/TNFalpha-induced cell death in ddY mouse hepatocytes assessed as cell viability at 10 uM after 20 hrs by MTT assay; details: read-out: Activity
[11] = tested on: L929; test: Inhibition of TNF-alpha-induced cell death in […] assessed as cell viability at 10 uM after 20 hrs by MTT assay; details: L929, 20 h, read-out: Activity
[12] = tested on: Hepatocyte; test: Inhibition of D-galactosamine/TNFalpha-induced cell death in ddY mouse hepatocytes assessed as cell viability at 30 uM after 20 hrs by MTT assay; details: read-out: Activity
[13] = tested on: Mus musculus; test: Inhibition of D-galactosamine/LPS-induced TNFalpha level in ddY mouse serum at 5 mg/kg, po by ELISA
[14] = tested on: Mus musculus; test: Inhibition of D-galactosamine/LPS-induced liver injury in ddY mouse assessed as serum GPT level at 5 mg/kg, po
[15] = tested on: Hepatocyte; test: Inhibition of D-galactosamine/TNFalpha-induced cell death in ddY mouse hepatocytes assessed as cell viability at 100 uM after 20 hrs by MTT assay; details: read-out: Activity
[16] = tested on: Mus musculus; test: Inhibition of D-galactosamine/LPS-induced liver injury in ddY mouse assessed as serum GPT level at 2.5 mg/kg, po
[17] = tested on: L929; test: Inhibition of TNF-alpha-induced cell death in […] assessed as cell viability at 100 uM after 20 hrs by MTT assay; details: L929, 20 h, read-out: Activity
[18] = tested on: Mus musculus; test: Inhibition of D-galactosamine/LPS-induced TNFalpha level in ddY mouse serum at 20 mg/kg, po by ELISA
[19] = tested on: Mus musculus; test: Inhibition of D-galactosamine/LPS-induced liver injury in ddY mouse assessed as serum GOT level at 5 mg/kg, po
[20] = tested on: Hepatocyte; test: Inhibition of D-galactosamine-induced cell death in ddY mouse hepatocytes assessed as cell viability at 10 uM after 44 hrs by MTT assay; details: read-out: Activity
[21] = tested on: Hepatocyte; test: Inhibition of D-galactosamine-induced cell death in ddY mouse hepatocytes assessed as cell viability at 100 uM after 44 hrs by MTT assay; details: read-out: Activity
[22] = tested on: Mus musculus; test: Inhibition of D-galactosamine/LPS-induced liver injury in ddY mouse assessed as serum GOT level at 2.5 mg/kg, po

In the case of `CCCCC/C=C\CCCCCCCC/C=C/C=C/C(=O)NCC(C)C`, the inhibition at 10 µM [1] is reported as 19%, the inhibition at 1 µM [2] is reported as 10% and the inhibition at 30 µM [3] is reported as 27%. The inhibition at 3 µM [4] was 3%.

In the case of `CCCCCCCCCCCCC/C=C/C=C/C(=O)NCC(C)C`, the inhibition at 10 µM [1] is reported as 41%, the inhibition at 1 µM [2] is reported as 15% and the inhibition at 30 µM [3] is reported as 43%. It also gave an inhibition at 3 µM [4] of 37%.

`CCCCCCC/C=C/C=C/C(=O)NCC(C)C` gave an inhibition at 10 µM [1] of 31%, an inhibition at 1 µM [2] of 12% and an inhibition at 30 µM [3] of 44%. It also gave an inhibition at 3 µM [4] of 21%.

With `CC(C)CNC(=O)/C=C/CCc1ccc2c(c1)OCO2` [4,5-DIHYDROPIPERLONGUMININE] the inhibition at 10 µM [1] was 43%, the inhibition at 1 µM [2] was 34% and the inhibition at 30 µM [3] was 66%. For the same compound, the inhibition at 3 µM [4] was 43%.

In the case of `CC(C)CNC(=O)/C=C/C=C/CCCCCCCC/C=C/c1ccc2c(c1)OCO2` [BRACHYSTAMIDE B], the inhibition at 10 µM [1] is reported as 11%, the inhibition at 30 µM [3] is reported as -6% and the inhibition at 3 µM [4] is reported as 22%.

Work on `CC(C)CNC(=O)/C=C/C=C/CCCCCC/C=C/c1ccc2c(c1)OCO2` [GUINEENSINE] yielded an inhibition at 10 µM [1] of 33%, an inhibition at 30 µM [3] of 12% and an inhibition at 3 µM [4] of 26%.

For `C[C@]12CCC(=O)C=C1CC[C@@H]1[C@@H]2[C@@H](O)C[C@@]2(C)[C@H]1CC[C@]2(O)C(=O)CO` [HYDROCORTISONE], the inhibition in vivo at 10 mg/kg [5] was 92.1%, the inhibition in vivo at 10 mg/kg [6] was 94.2% and the inhibition in vivo at 10 mg/kg [7] was 97.7%.

For `COC(=O)/C=C/C=C/c1ccc2c(c1)OCO2` [METHYL PIPERATE], the inhibition at 10 µM [1] was 29%, the inhibition at 30 µM [3] was 21% and the inhibition at 3 µM [4] was 18%.

`CCCCC/C=C/C=C/C(=O)NCC(C)C` [PELLITORIN] gave an inhibition at 10 µM [1] of 25%, an inhibition at 30 µM [3] of 42% and an inhibition at 3 µM [4] of 19%.

Compound `O=C(/C=C/CCc1ccc2c(c1)OCO2)N1CCCCC1` [PIPERANINE] has an inhibition at 10 µM [1] of 50%, an inhibition at 30 µM [3] of 53% and an inhibition at 3 µM [4] of 31%.

With `O=C1C=CCCN1C(=O)CCc1ccccc1` [PIPERCHABAMIDE A] the inhibition at 10 µM [1] was 32%, the inhibition at 30 µM [3] was 70% and the inhibition at 3 µM [4] was 29%.

`O=C(/C=C/CCCCCC/C=C/c1ccc2c(c1)OCO2)N1CCCCC1` [PIPERCHABAMIDE B] was tested, and the inhibition at 10 µM [1] was 74%, the inhibition at 30 µM [3] was 78% and the inhibition at 3 µM [4] was 63%.

`O=C(/C=C/C=C/CCCCCC/C=C/c1ccc2c(c1)OCO2)N1CCCCC1` [PIPERCHABAMIDE C] gave an inhibition at 10 µM [1] of 52%, an inhibition at 30 µM [3] of 68% and an inhibition at 3 µM [4] of 42%.

`CC(C)CNC(=O)/C=C/CCCCCC/C=C/c1ccc2c(c1)OCO2` [PIPERCHABAMIDE D] gave an inhibition at 10 µM [1] of 77%, an inhibition at 30 µM [3] of 37% and an inhibition at 3 µM [4] of 57%.

With `CCC(C)CNC(=O)/C=C/C=C/c1ccc2c(c1)OCO2` (stereo not given) [PIPERCHABAMIDE E] the inhibition at 10 µM [1] was 71%, the inhibition at 30 µM [3] was 98% and the inhibition at 3 µM [4] was 34%.

In the case of `O=C(/C=C/C=C/c1ccc2c(c1)OCO2)N1CCCCC1` [PIPERINE], the inhibition at 10 µM [1] is reported as 46%, the inhibition in vivo at 10 mg/kg [5] is reported as 9.2% and the viability at 30 µM [8] is reported as 66.2%. It also gave a viability at 30 µM [9] of 36.5%, a viability at 10 µM [10] of 72.4% and an inhibition in vivo at 10 mg/kg [6] of 96.1%. For the same compound, the viability at 10 µM [11] was 64%, the viability at 30 µM [12] was 76.1% and the inhibition in vivo at 10 mg/kg [7] was 94.3%. It also gave an inhibition at 30 µM [3] of 68%, an inhibition in vivo at 5 mg/kg [13] of 15.7% and an inhibition in vivo at 5 mg/kg [14] of 51.1%. It also gave a viability at 100 µM [15] of 84.3%, an inhibition in vivo at 2.5 mg/kg [16] of 23.2% and a viability at 100 µM [17] of 92.2%. It also gave an inhibition in vivo at 20 mg/kg [18] of -2.2%, an inhibition in vivo at 5 mg/kg [19] of 50.7% and a viability at 10 µM [20] of 40.6%. It also gave an inhibition at 3 µM [4] of 23%, a viability at 100 µM [21] of 29.2% and an inhibition in vivo at 2.5 mg/kg [22] of 0.3%.

`CC(C)CNC(=O)/C=C/C=C/c1ccc2c(c1)OCO2` [PIPERLONGUMININE] showed an inhibition at 10 µM [1] of 54%, an inhibition at 1 µM [2] of 27% and an inhibition at 30 µM [3] of 66%. For the same compound, the inhibition at 3 µM [4] was 50%.

`O=C(/C=C/CCCC/C=C/c1ccc2c(c1)OCO2)N1CCCCC1` [PIPERNONALINE] showed an inhibition at 10 µM [1] of 31%, an inhibition at 30 µM [3] of 48% and an inhibition at 3 µM [4] of 17%.

In the case of `O=Cc1ccc2c(c1)OCO2` [PIPERONAL], the inhibition at 10 µM [1] is reported as 23%, the inhibition at 30 µM [3] is reported as 39% and the inhibition at 3 µM [4] is reported as 20%.

For `O=C(CCCCCC/C=C/c1ccc2c(c1)OCO2)N1CCCCC1` [PIPERROLEIN B], the inhibition at 10 µM [1] was 33%, the inhibition at 1 µM [2] was 20% and the inhibition at 30 µM [3] was 64%. The inhibition at 3 µM [4] was 29%.

`O=C(/C=C/C=C/CCCC/C=C/c1ccc2c(c1)OCO2)N1CCCCC1` [PIPERUNDECALIDIENE] showed an inhibition at 10 µM [1] of 49%, an inhibition at 1 µM [2] of 27% and an inhibition at 30 µM [3] of 58%. It also gave an inhibition at 3 µM [4] of 40%.

`CC(C)CNC(=O)/C=C/C=C/CC/C=C/c1ccc2c(c1)OCO2` [RETROFRACTAMIDE A] showed an inhibition at 10 µM [1] of 35%, an inhibition at 1 µM [2] of 40% and an inhibition at 30 µM [3] of 60%. The inhibition at 3 µM [4] was 32%.

In the case of `CC(C)CNC(=O)/C=C/C=C/CCCC/C=C/c1ccc2c(c1)OCO2` [RETROFRACTAMIDE B], the inhibition at 10 µM [1] is reported as 51%, the inhibition at 1 µM [2] is reported as 32% and the inhibition at 30 µM [3] is reported as 26%. It also gave an inhibition at 3 µM [4] of 54%.

`CC(C)CNC(=O)/C=C/CCCC/C=C/c1ccc2c(c1)OCO2` [RETROFRACTAMIDE C] showed an inhibition at 10 µM [1] of 31%, an inhibition at 1 µM [2] of 30% and an inhibition at 30 µM [3] of 37%. The inhibition at 3 µM [4] was 51%.
